Data on 3 compounds can be found in US20200281944A1, “Combinations Of Lanosterol Or 25-Hydroxycholesterol Including Derivatives Thereof Useful In The Treatment Of Lens Disorders” (priority 2017, published 2020).

The test system of one data set is presbyopia. As to conditions: cited from earlier work.
The subject of another data set is lens opacification. The conditions noted are these: cell cultures, in the presence of guanidine; cited from earlier work.

Where a name gives a salt, the structure may show the parent alone.

A word on the melting point: it is the temperature, or range, at which the solid turns liquid.

`CC(C)=CCC[C@@H](C)[C@H]1CC[C@@]2(C)C3=C(CC[C@]12C)[C@@]1(C)CC[C@H](OP(=O)(O)O)C(C)(C)[C@@H]1CC3` (as salt: phosphate) registered a melting point of 204 to 205 °C.
Turning to `C[N+](C)(C)CCOC(=O)CCCC[C@@H]1CCSS1` [EV06, Lipoic acid choline ester], in the data set with presbyopia (Lipoic acid choline ester 1.5%), the binocular near acuity result is reported as “improved”. Besides, in the data set with presbyopia (in vivo), the “distance corrected near vision acuity (DCNVA) efficacy measures” value is “improvement in all”.
Take `NCCC(=O)N[C@@H](Cc1c[nH]cn1)C(=O)O` [L-carnosine, β-alanyl-L-histidine]: the “prevention of lens opacification” value in the data set with lens opacification is 50 to 60%.
